In brackets after ≈: the same amount, converted by molar mass. Like-named read-outs stand apart in the source and are kept apart here.
Experiment: Solubility of tripamide in water, Liquid I or Liquid II of the Japanese Pharmacopeia (37° C., 5 days, absorbancy method)
Type: physicochemical
Conditions: for solubility at 120 h: 37° C., 5 days, as tripamide, Experiment 2
Description: The inclusion compound prepared in accordance with the process described in Example 1 was used as a sample. This sample was prepared by the reaction of 1 mole of tripamide and 3 moles of β-cyclodextrin. For purpose of comparison, tripamide per se was used.
The sample was accurately weighed 100 mg as tripamide and mixed with water, Liquid I of the Japanese Pharmacopeia or Liquid II of the Japanese Pharmacopeia. The mixture was stirred at 37° C. in a warm bath for 5 days. Tripamide, dissolved in the solution, was measured by the absorbancy method.
That is, each of the tripamide solutions in water, Liquid I of the Japanese Pharmacopeia and Liquid II of the Japanese Pharmacopeia was filtered using a millipore filter of 1.2 μm and 1 ml each of the solutions after filtration was taken out. In the case of the solution using Liquid I of the Japanese Pharmacopeia, the solution was further diluted with Liquid I of the Japanese Pharmacopeia to make a 100 ml solution and 5 ml taken out of the resulting solution was further diluted to 50 ml with a 0.1N hydrochloric acid-methanol solution followed by measurement at 244 nm. In the case of each of the solutions in water and Liquid II of the Japanese Pharmacopeia, the solution was diluted to 100 ml with Liquid II of the Japanese Pharmacopeia followed by measurement at 233 nm. […]

## NS(=O)(=O)c1cc(C(=O)NN2C[C@@H]3[C@@H]4CC[C@@H](C4)[C@@H]3C2)ccc1Cl [Tripamide, N-(4-A2a-endo-tricyclo[5.2.1.0^2.6. ]decan-4-yl)-4-chloro-3-sulfamoylbenzamide]
Water, read-out: Solubility (mg/ml), Water
  solubility at 120 h: 0.0094 mg/mL (≈ 25.4 µM)
Jp liquid i, pH 1.2, Liquid I of the Japanese Pharmacopeia, pH about 1.2, read-out: Solubility (mg/ml), Japanese Pharmacopeia Liquid I
  solubility at 120 h: 0.349 mg/mL (≈ 944 µM)
Jp liquid ii, pH 7.5, Liquid II of the Japanese Pharmacopeia, pH about 7.5, read-out: Solubility (mg/ml), Japanese Pharmacopeia Liquid II
  solubility at 120 h: 0.0144 mg/mL (≈ 38.9 µM)
water, Liquid I and Liquid II of the Japanese Pharmacopoeia, sample for comparison
  solubility in water, Liquid I and Liquid II (in words): low
water, background statement
  solubility in water (in words): soluble in water only with extreme difficulty

— patent US4598070A, “Tripamide and cyclodextrin inclusion compound” (Eisai Co., Ltd., priority 1983, dated 1986)
